According to patent publication US6525022B1, “Receptor specific atrial natriuretic peptides” (Genentech, Inc., priority 1993, dated 2003):

Assays:
[1] = tested on: rhesus monkey kidney membranes (NPR-A and NPR-C); test: Competition binding in rhesus monkey kidney membranes; settings: FIG. 11, rhesus monkey kidney membranes
Procedure: For preparation of membranes from Rhesus monkey tissues, frozen tissue was placed between parafilm and broken up into pieces by hitting with a hammer. Tissue was transferred to a 125 mL polypropylene tube containing 100 mL of ice-cold buffer #1 (50 mM HEPES, pH 7.4, 1 mM EDTA, 250 mM sucrose, 0.7 mg/mL pepstatin A, 0.5 mg/mL leupeptin, 1 mM PMSF, and 1 mM phosphoramidon). Tissue was homogenized with a Brinkman polytron on a setting of 5 two times for 10 sec. The sample was placed on ice between homogenizations. 11 mL of 30 mM MgCl2/100 mM NaCl containing 1 mM phosphoramidon was added to the homogenate. The homogenate was spun at 400×g for 10 min at 4° C. in a HB-4 rotor. The supernatant was transferred to another tube and spun as above. The supernatant was passed though four layers of sterile gauze then centrifuged at 30,000×g for 20 min at 4° C. in a 60 Ti rotor. […]
Membrane competition binding assays. […] The plates were washed six times with PBS, then air dried prior to adding scintillant and counted in a Packard Topcount scintillation counter for 1 min/well. Binding was measured in duplicate for each concentration of competitor.
Data analysis. The competition binding curves and cGMP production dose responses were analyzed by the four-parameter logistic equation with the KaleidaGraph™ program (Synergy Software, PA) to obtain estimates of the IC50 or EC50 values. […]

[2] = tested on: rhesus monkeys; format: in vivo; settings: rhesus monkey
Procedure: Administration of Natriuretic Peptides to Rhesus Monkeys. […] A second iv catheter was inserted for fluid administration and blood withdrawal. A urinary catheter was inserted and urine flow monitored at 10 minute intervals. Urine output and blood withdrawal volumes were replaced by intravenous administration of equal volumes of equal parts of one-half normal saline and 5% (W/V) dextrose in water (D5W). […] Every ten minutes, urine, if present, was collected, the volume recorded and analyzed for sodium and potassium content.

Compound | Displacement of 125I-rat ANP binding [1] | Urine flow, potassium excretion and sodium excretion ([2]; 7.5 ng/kg/min 60-minute infusion) | Potassium excretion ([2]; 25 ng/kg/min infusion) | Sodium excretion above baseline ([2]; 25 ng/kg/min infusion) | Urine flow above baseline ([2]; 25 ng/kg/min infusion) | Systolic arterial pressure ([2]; escalating iv infusion from 7.5 ng/kg/min) | Infusion rate at which dosing was discontinued because of hypotension ([2]; in vivo)
CC[C@H](C)[C@@H]1NC(=O)[C@H](CCCNC(=N)N)NC(=O)[C@H](CC(=O)O)NC(=O)[C@H]([C@@H](C)CC)NC(=O)[C@H](CO)NC(=O)CNC(=O)[C@H]([C@@H](C)O)NC(=O)[C@H](Cc2ccccc2)NC(=O)[C@@H](NC(=O)[C@H](CO)NC(=O)[C@H](CO)NC(=O)[C@H](CCCNC(=N)N)NC(=O)[C@H](CCCNC(=N)N)NC(=O)[C@H](CC(C)C)NC(=O)[C@@H](N)CO)CSSC[C@@H](C(=O)N[C@@H](CC(N)=O)C(=O)N[C@@H](CO)C(=O)N[C@@H](Cc2ccccc2)C(=O)N[C@@H](CCCNC(=N)N)C(=O)N[C@@H](Cc2ccc(O)cc2)C(=O)O)NC(=O)CNC(=O)[C@H](CC(C)C)NC(=O)CNC(=O)[C@H](CO)NC(=O)[C@H](CCC(N)=O)NC(=O)[C@H](C)NC(=O)[C@H](CCCNC(=N)N)NC1=O [ANF 27] | a smaller portion of the total binding is displaced |  |  |  |  |  | 
CC[C@H](C)[C@@H]1NC(=O)[C@H](CCCNC(=N)N)NC(=O)[C@H](CC(=O)O)NC(=O)[C@H]([C@@H](C)CC)NC(=O)[C@H](CO)NC(=O)CNC(=O)[C@H]([C@@H](C)O)NC(=O)[C@H](Cc2ccccc2)NC[C@@H](NC(=O)[C@H](CO)NC(=O)[C@H](CO)NC(=O)[C@H](CCCNC(=N)N)NC(=O)[C@H](CCCNC(=N)N)NC(=O)[C@H](CC(C)C)NC(=O)[C@@H](N)CO)CSSC[C@@H](C(=O)N[C@@H](CC(N)=O)C(=O)N[C@@H](CO)C(=O)N[C@@H](Cc2ccccc2)C(=O)N[C@@H](CCCNC(=N)N)C(=O)N[C@@H](Cc2ccc(O)cc2)C(=O)O)NC(=O)CNC(=O)[C@H](CC(C)C)NC(=O)CNC(=O)[C@H](CO)NC(=O)[C@H](CCC(N)=O)NC(=O)[C@H](C)NC(=O)[C@H](CCCNC(=N)N)NC1=O [ANF 84] |  | began to rise in parallel at the beginning of the 7.5 ng/kg/min infusion, but returned to baseline by 60 minutes | remained at slightly-elevated levels | ~100 fold | approximately 10 fold | began to gradually decline | 25 ng/kg/min
